Where “and” joins values, the source holds several entries; their conditions need not be identical. Identical values can stand only once.

The test system of one experiment is Ps. aeruginosa. In words: Two-dimensional microtiter checkerboard, MIC and FIC of EDTA in 50 mM Tris and antibiotics. Type of experiment: cell-based, Pseudomonas aeruginosa. Here is the method: (§1) Sabath, L. D, Antimicrob. Agents and Chem. 210-217. (1967) and Sparks et al., Vet. Res. Comm. 18, 241-249 (1994), incorporated herein by reference in their entireties. […] Then 0.05 ml of an 18-hour old culture of a test organism, containing 10^6 colony-forming units (CFU) ml, were added to each well. Controls for the culture and media were included in each plate. Plates were covered and incubated at 37° C. for 18-24 hours. […] To generate isobolograms, FICs of the two test solutions were plotted individually on the x-axis and y-axis to determine the effect of combining the two test solutions on bacterial growth. A line that curves away from the zero point and the coordinates indicated antagonism. […] Sabath, L. D, Antimicrob. Agents and Chem. 210-217. (1967), and incorporated herein by reference in their entireties. A numerical score or Fractional Inhibitory Concentration (FIC) index was determined.

For another experiment, the system named is Staph. aureus. The description is as above. Type of experiment: cell-based, Staphylococcus aureus. As for the experimental part:
as §1

The subject of a further experiment is Ent. faecalis. The experiment is described as above. It is filed as cell-based, Enterococcus faecalis. As for the experimental part:
as §1

The next experiment concerns surface ulcers of Koi. The experiment can be described thus: Treatment of Koi suffering from surface ulcers (Example 2). Type of experiment: in vivo, Koi (Cyprinus carpio). The following applies: antibiotics injected directly into the fish, before the bath treatment. Here is the method:
All fish were housed in a communal “hospital tank” before treatment and moved to an isolation tank after each treatment. The temperature of the bath was adjusted to that of the hospital tank temperature, 24° C., and adequate aeration was supplied to the treatment tank.

For the next experiment, the system named is Aeromonas sobria. The experiment can be described thus: MIC and FIC of EDTA in 50 mM Tris and neomycin, Aeromonas isolated from ulcerated fish. Type of experiment: cell-based. To be noted: A. sobria. Here is the method: (§2) Sabath, L. D, Antimicrob. Agents and Chem. 210-217. (1967) and Sparks et al., Vet. Res. Comm. 18, 241-249 (1994), incorporated herein by reference in their entireties.
(§3) Then 0.05 ml of an 18-hour old culture of a test organism, containing 10^6 colony-forming units (CFU) ml, were added to each well. Controls for the culture and media were included in each plate. Plates were covered and incubated at 37° C. for 18-24 hours.
(§4) To generate isobolograms, FICs of the two test solutions were plotted individually on the x-axis and y-axis to determine the effect of combining the two test solutions on bacterial growth. A line that curves away from the zero point and the coordinates indicated antagonism. […] Sabath, L. D, Antimicrob. Agents and Chem. 210-217. (1967), and incorporated herein by reference in their entireties.
(§5) A numerical score or Fractional Inhibitory Concentration (FIC) index was determined. The FIC index is equal to the sum of the values of FIC for the individual drugs: [formula]
(§6) An FIC index greater than 1.0 indicated an antagonistic interaction, an FIC index of 1.0 indicated addition, and an FIC index of less than or equal to 0.5 indicated synergism between the two test agents.

The subject of a further experiment is Aeromonas caviae. Described as above. Type of experiment: cell-based. The following applies: A. caviae. Here is the method:
as §2, §3, §4, §5, §6

In experiment [1] the test system is Pseudomonas aeruginosa. In words: Antibiotic resistance profile. Further: key: R = resistant; I = intermediate; S = sensitive. To be noted: Pseudomonas aeruginosa test strain. It is filed as cell-based.
Experiment [2] has as its system Enterococcus faecalis. The experiment can be described thus: Antibiotic resistance profile. Further: key: R = resistant; I = intermediate; S = sensitive. It is filed as cell-based. To be noted: Enterococcus faecalis test strain.
Experiment [3] has as its system Staphylococcus aureus. In words: Antibiotic resistance profile. Further: key: R = resistant; I = intermediate; S = sensitive. It is filed as cell-based. The following applies: Staphylococcus aureus test strain.
For experiment [4], the system named is Enterococcus faecalis. In words: Minimal Bactericidal Concentration (MBC), EDTA and neomycin in 50 mM Tris. Type of experiment: cell-based.
Experiment [5] concerns Pseudomonas aeruginosa. The experiment is described as above. It is filed as cell-based.
The test system of experiment [6] is Staphylococcus aureus. The experiment is described as above. Type of experiment: cell-based.
The subject of a further experiment is Aeromonas hydrophila. In words: MIC and FIC of EDTA in 50 mM Tris and neomycin, Aeromonas isolated from ulcerated fish. To be noted: A. hydrophila. It is filed as cell-based. Here is the method:
as §2, §3, §4, §5, §6

`NCC[C@H](O)C(=O)N[C@@H]1C[C@H](N)[C@@H](O[C@H]2O[C@H](CN)[C@@H](O)[C@H](O)[C@H]2O)[C@H](O)[C@H]1O[C@H]1O[C@H](CO)[C@@H](O)[C@H](N)[C@H]1O` [Amikacin, amikacin, reference compound]: the “MIC, antibiotic individually administered” value in the experiment with Ps. aeruginosa (Ps. aeruginosa, alone) was determined as 1 µg/mL; in the experiment on Staph. aureus (Staph. aureus, alone), 120 µg/mL; in the experiment on Ent. faecalis (Ent. faecalis, alone) it was 2000 µg/mL. In the experiment on surface ulcers of Koi, the “Healing of visible ulcers” value is recorded as “failed to heal visible ulcers”.
Take `CC1(C)S[C@@H]2[C@H](NC(=O)[C@H](N)c3ccccc3)C(=O)N2[C@H]1C(=O)O` [Ampicillin, ampicillin, reference compound]: the “MIC, antibiotic individually administered” value with Ps. aeruginosa (Ps. aeruginosa, alone) amounted to 490 µg/mL; in the experiment on Staph. aureus (Staph. aureus, alone), 240 µg/mL; in the experiment with Ent. faecalis (Ent. faecalis, alone), 1 µg/mL.
With `C[C@H]1[C@H](NC(=O)/C(=N\OC(C)(C)C(=O)O)c2csc(N)n2)C(=O)N1S(=O)(=O)O` [Azactam], the “Healing of visible ulcers” value with surface ulcers of Koi is listed as “failed to heal visible ulcers”.
Still for that read-out and setting: then `CCN1CCN(c2cc3c(cc2F)c(=O)c(C(=O)O)cn3C2CC2)CC1` [Baytril], with “failed to heal visible ulcers”.
`O=C(N[C@H](CO)[C@H](O)c1ccc([N+](=O)[O-])cc1)C(Cl)Cl` [Chloramphenicol, chloramphenicol, reference compound]: the “MIC, antibiotic individually administered” value worked out at 390 µg/mL in the experiment with Staph. aureus (Staph. aureus, alone) and 400 µg/mL with Ent. faecalis (Ent. faecalis, alone).
In the case of `O=C(O)CN(CCN(CC(=O)O)CC(=O)O)CC(=O)O` [EDTA, ethylenediaminetetracetic acid], the “MIC, individually administered EDTA” value in the experiment on Ps. aeruginosa (Ps. aeruginosa, EDTA in 50 mM Tris, alone) stood at 1250 µM; with Staph. aureus (Staph. aureus, EDTA in 50 mM Tris, alone), 1000 µM; in the experiment with Ent. faecalis (Ent. faecalis, EDTA in 50 mM Tris, alone), 15630 µM. For the same molecule, the MIC turned out to be 1250 µM with Ps. aeruginosa (Pseudomonas aeruginosa, read-out: MIC, individually administered EDTA); 1000 µM with Staph. aureus (Staphylococcus aureus, read-out: MIC, individually administered EDTA); 15600 µM in the experiment on Ent. faecalis (Enterococcus faecalis, read-out: MIC, individually administered EDTA). Moreover, the “MIC, EDTA in 50 mM Tris alone” value with Aeromonas sobria is reported as 15.6; with Aeromonas caviae, under 0.49.
As for `CN(C)[C@@H]1C(O)=C(C(N)=O)C(=O)[C@@]2(O)C(O)=C3C(=O)c4c(O)cccc4[C@@](C)(O)[C@H]3[C@H](O)[C@@H]12` [Oxytetracycline, oxytetracycline, reference compound], the “MIC, antibiotic individually administered” value was 3 µg/mL in the experiment with Ps. aeruginosa (Ps. aeruginosa, alone); 0.1 µg/mL with Staph. aureus (Staph. aureus, alone); 50 µg/mL in the experiment on Ent. faecalis (Ent. faecalis, alone).
For `CN[C@H](CC(C)C)C(=O)N[C@H]1C(=O)N[C@@H](CC(N)=O)C(=O)N[C@H]2C(=O)N[C@H]3C(=O)N[C@H](C(=O)N[C@H](C(=O)O)c4cc(O)cc(O)c4-c4cc3ccc4O)[C@H](O)c3ccc(c(Cl)c3)Oc3cc2cc(c3O[C@@H]2O[C@H](CO)[C@@H](O)[C@H](O)[C@H]2O[C@H]2C[C@](C)(N)[C@H](O)[C@H](C)O2)Oc2ccc(cc2Cl)[C@H]1O` [Va, vancomycin], the Antibiotic resistance profile entry with Pseudomonas aeruginosa [1] is “R”; in the experiment on Enterococcus faecalis [2] it was “R”; with Staphylococcus aureus [3], “S”.
gentamicin [Gm]: the Antibiotic resistance profile entry is on record as “I” with Pseudomonas aeruginosa [1], “R” with Enterococcus faecalis [2] and “S” with Staphylococcus aureus [3].
For the molecule neomycin [reference compound], the “MIC, antibiotic individually administered” value in the experiment with Ps. aeruginosa (Ps. aeruginosa, alone) stood at 1000 µg/mL; with Staph. aureus (Staph. aureus, alone), 3130 µg/mL; in the experiment with Ent. faecalis (Ent. faecalis, alone) it was 3130 µg/mL. The “Decrease of MBC value when combined compared to individually administered” value with Enterococcus faecalis [4] (Ent. faecalis, EDTA and neomycin combined) was 75%; in the experiment with Pseudomonas aeruginosa [5] (Ps. aeruginosa, EDTA and neomycin combined), 99.2%; in the experiment on Staphylococcus aureus [6] (Staph. aureus, EDTA and neomycin combined), “about 50% and 50%”. Further, the “MBC, neomycin co-administered” value came to 6250 µg/mL with Enterococcus faecalis [4] (Enterococcus faecalis, co-administered with EDTA in 50 mM Tris); 40 µg/mL in the experiment with Pseudomonas aeruginosa [5] (Pseudomonas aeruginosa, co-administered with EDTA in 50 mM Tris); 1560 µg/mL with Staphylococcus aureus [6] (Staphylococcus aureus, co-administered with EDTA in 50 mM Tris). Also, the “MBC, neomycin individually administered” value against Enterococcus faecalis [4] (Enterococcus faecalis, in 50 mM Tris) stood at 25000 µg/mL; against Pseudomonas aeruginosa [5] (Pseudomonas aeruginosa, in 50 mM Tris), 5000 µg/mL; in the experiment on Staphylococcus aureus [6] (Staphylococcus aureus, in 50 mM Tris), 3130 µg/mL. Also, the Antibiotic resistance profile entry in the experiment with Pseudomonas aeruginosa [1], in the experiment on Enterococcus faecalis [2] and with Staphylococcus aureus [3] was “R” in each case. For the same molecule, the “MIC, neomycin alone” value in the experiment on Aeromonas hydrophila is 200 µg/mL; with Aeromonas sobria, 12.5 µg/mL; in the experiment with Aeromonas caviae, 12.5 µg/mL.
